Among the data in patent US20100317647A1 (priority 2009, published 2010) are IC50 values, retold here.

The target in this assay is human Cat S (Homo sapiens, UniProt P25774). As to the kind of experiment: Cathepsin enzyme inhibition assay (fluorogenic peptide substrate cleavage). In kind it is biochemical. The note with it: human Cat S 1 nM; substrate Z-Val-Val-Arg-AMC 20 μM; pH 6.5; fluorescence over 20 minutes. The essentials: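 Fluorogenic cleavage of Z-Val-Val-Arg-AMC (20 μM) by 1 nM enzyme in 100 mM potassium phosphate pH 6.5, 5 mM EDTA, 5 mM DTT, 0.001% Triton X-100. Reaction started with substrate; fluorescence (ex 360/em 465 nm) followed over 20 minutes. IC50 by standard methods.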
Sequence of human Cat S (P25774 115-331): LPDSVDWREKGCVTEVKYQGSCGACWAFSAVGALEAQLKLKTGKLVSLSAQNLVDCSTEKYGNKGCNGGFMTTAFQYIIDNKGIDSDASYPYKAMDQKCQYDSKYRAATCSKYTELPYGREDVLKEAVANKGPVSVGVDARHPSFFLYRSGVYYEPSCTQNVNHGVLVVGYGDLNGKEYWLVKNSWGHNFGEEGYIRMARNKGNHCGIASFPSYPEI
For `N#CC1(NC(=O)[C@@H]2C[C@H](S(=O)(=O)c3ccc(Cl)cn3)C[C@H]2C(=O)N2CCC(F)(F)C2)CC1` [Example 226, (1R,2R,4S)-4-(5-Chloro-pyridine-2-sulfonyl)-2-(3,3-difluoro-pyrrolidine-1-carbonyl)-cyclopentanecarboxylic acid (1-cyano-cyclopropyl)-amide], the IC50 (in general, the point on the concentration scale where inhibition reaches its midpoint) was 50 nM. In the case of `N#CC1(NC(=O)[C@@H]2C[C@@H](S(=O)(=O)c3ccc(F)cc3Cl)C[C@H]2C(=O)N2CCC(F)(F)C2)CC1` [Example 186, (1R,2R,4R)-4-(2-Chloro-4-fluoro-benzenesulfonyl)-2-(3,3-difluoro-pyrrolidine-1-carbonyl)-cyclopentanecarboxylic acid (1-cyano-cyclopropyl)-amide] it was 2.15 nM; in that of `CC(C)(C)N1CCN(c2ccc(S(=O)(=O)[C@@H]3C[C@@H](C(=O)NC4(C#N)CC4)[C@H](C(=O)N4CCC(F)(F)C4)C3)c(Cl)c2)CC1` [Example 192, (1R,2R,4R)-4-[4-(4-tert-Butyl-piperazin-1-yl)-2-chloro-benzenesulfonyl]-2-(3,3-difluoro-pyrrolidine-1-carbonyl)-cyclopentanecarboxylic acid (1-cyano-cyclopropyl)-amide], 0.155 nM; in that of `CO[C@@H]1C[C@H](S(=O)(=O)c2ccc(-c3cnn(CC(=O)N(C)C)c3)cc2C(F)(F)F)C[C@H]1C(=O)NC1(C#N)CC1` (racemic) [Example 218, (1R,2R,4R) and (1S,2S,4S)-4-[4-(1-Dimethylcarbamoylmethyl-1H-pyrazol-4-yl)-2-trifluoromethyl-benzenesulfonyl]-2-methoxy-cyclopentanecarboxylic acid (1-cyano-cyclopropyl)-amide], 0.92 nM. In the case of `CC(=O)N1CCN(c2ccc(S(=O)(=O)C3CC(C(=O)NC4(C#N)CC4)C(C(=O)N4CC(F)(F)C4)C3)c(C(F)(F)F)c2)CC1` (stereo not drawn) [Example 131, 4-[4-(4-Acetyl-piperazin-1-yl)-2-trifluoromethyl-benzenesulfonyl]-2-(3,3-difluoro-azetidine-1-carbonyl)-cyclopentanecarboxylic acid (1-cyano-cyclopropyl)-amide] it was 1.2 nM; in that of `Cc1cc(Cl)ccc1S(=O)(=O)[C@H]1C[C@@H](C(=O)N2CCOCC2)[C@H](C(=O)N2CCC[C@H]2C#N)C1` [Example 44, (S)-1-[(1R,2R,4S)-4-(4-Chloro-2-methyl-benzenesulfonyl)-2-(morpholine-4-carbonyl)-cyclopentanecarbonyl]-pyrrolidine-2-carbonitrile], 1300 nM. In the case of `N#CC1(NC(=O)[C@@H]2C[C@@H](S(=O)(=O)c3ccc(N4CCN(C5CC5)CC4)cc3Cl)C[C@H]2C(=O)N2CCC(F)(F)C2)CC1` [Example 191, (1R,2R,4R)-4-[2-Chloro-4-(4-cyclopropyl-piperazin-1-yl)-benzenesulfonyl]-2-(3,3-difluoro-pyrrolidine-1-carbonyl)-cyclopentanecarboxylic acid (1-cyano-cyclopropyl)-amide] it was 0.575 nM; in that of `COCc1cn(-c2ccc(S(=O)(=O)[C@@H]3C[C@H](OC)[C@@H](C(=O)NC4(C#N)CC4)C3)c(C(F)(F)F)c2)nn1` (racemic) [Example 246, (1S,2S,4S) and (1R,2R,4R)-2-Methoxy-4-[4-(4-methoxymethyl-[1,2,3]triazol-1-yl)-2-trifluoromethyl-benzenesulfonyl]-cyclopentanecarboxylic acid (1-cyano-cyclopropyl)-amide], 1.25 nM; in that of `CO[C@@H]1C[C@H](S(=O)(=O)c2ccc(-c3cncc(F)c3)cc2C(F)(F)F)C[C@H]1C(=O)NC1(C#N)CC1` (racemic) [Example 84, (1R,2R,4R) and (1S,2S,4S)-4-[4-(5-Fluoro-pyridin-3-yl)-2-trifluoromethyl-benzenesulfonyl]-2-methoxy-cyclopentanecarboxylic acid (1-cyano-cyclopropyl)-amide], 0.7 nM. For `N#CC1(NC(=O)[C@@H]2C[C@@H](S(=O)(=O)c3ccc(F)cc3Cl)C[C@H]2COc2ccncc2)CC1` [Example 163, (1R,2R,4S)-4-(2-Chloro-4-fluoro-benzenesulfonyl)-2-(pyridin-4-yloxymethyl)-cyclopentanecarboxylic acid (1-cyano-cyclopropyl)-amide], half-maximal inhibition (IC50) required 11.1 nM. In the case of `N#CCNC(=O)[C@@H]1C[C@@H](S(=O)(=O)Cc2ccccc2)C[C@H]1C(=O)N1CCOCC1` [Example 38, (1R,2R,4R)-2-(Morpholine-4-carbonyl)-4-phenylmethanesulfonyl-cyclopentanecarboxylic acid cyanomethyl-amide] it was 533 nM; in that of `CO[C@@H]1C[C@H](S(=O)(=O)c2ccccc2C(F)(F)F)C[C@H]1C(=O)NCC#N` (racemic) [Example 47, (1R,2R,4R) and (1S,2S,4S)-2-Methoxy-4-(2-trifluoromethyl-benzenesulfonyl)-cyclopentanecarboxylic acid cyanomethyl-amide], 7.8 nM. Compound `CO[C@@H]1C[C@H](S(=O)(=O)c2ccc(-c3cnn(C)c3)cc2C(F)(F)F)C[C@H]1C(=O)NC1(C#N)CC1` [Example 138, (1R,2R,4R)-2-Methoxy-4-[4-(1-methyl-1H-pyrazol-4-yl)-2-trifluoromethyl-benzenesulfonyl]-cyclopentanecarboxylic acid (1-cyano-cyclopropyl)-amide] had an IC50 of 0.4 nM.

The compound `CN(C)C(=O)[C@@H]1C[C@H](S(=O)(=O)c2ccccc2)C[C@H]1C(=O)NC1(C#N)CC1` [Example 27, (1R,2R,4R)-4-Benzenesulfonyl-cyclopentane-1,2-dicarboxylic acid 1-[(1-cyano-cyclopropyl)-amide]2-dimethylamide] yielded an IC50 of 6.2 nM.

On to `N#CCNC(=O)[C@H]1C[C@@H](S(=O)(=O)c2ccccc2Cl)C[C@@H]1O` (racemic) [Example 53, (1S,2S,4R) and (1R,2R,4S)-4-(2-Chloro-benzenesulfonyl)-2-hydroxy-cyclopentanecarboxylic acid cyanomethyl-amide], for which the IC50 worked out at 6690 nM.

As for `CO[C@@H]1C[C@H](S(=O)(=O)c2ccc(-n3nc(C)ccc3=O)cc2Cl)C[C@H]1C(=O)NC1(C#N)CC1` (racemic) [Example 88, (1R,2R,4R) and (1S,2S,4S)-4-[2-Chloro-4-(3-methyl-6-oxo-6H-pyridazin-1-yl)-benzenesulfonyl]-2-methoxy-cyclopentanecarboxylic acid (1-cyano-cyclopropyl)-amide], the IC50 is 9.1 nM.

Take `CO[C@@H]1C[C@H](S(=O)(=O)c2ccc(-c3cnn(CC(N)=O)c3)cc2C(F)(F)F)C[C@H]1C(=O)NC1(C#N)CC1` (racemic) [Example 194, (1R,2R,4R) and (1S,2S,4S)-4-[4-(1-Carbamoylmethyl-1H-pyrazol-4-yl)-2-trifluoromethyl-benzenesulfonyl]-2-methoxy-cyclopentanecarboxylic acid (1-cyano-cyclopropyl)-amide]: the IC50 is 0.713 nM.

In the case of `Cc1ccc(S(=O)(=O)[C@@H]2C[C@@H](C(=O)NC3(C#N)CC3)[C@H](C(=O)N3CCC(F)(F)C3)C2)c(Cl)c1` [Example 200, (1R,2R,4R)-4-(2-Chloro-4-methyl-benzenesulfonyl)-2-(3,3-difluoro-pyrrolidine-1-carbonyl)-cyclopentanecarboxylic acid (1-cyano-cyclopropyl)-amide], the IC50 turned out to be 0.445 nM. For `CO[C@@H]1C[C@H](S(=O)(=O)c2ccc(-c3cncnc3)cc2C(F)(F)F)C[C@H]1C(=O)NC1(C#N)CC1` (racemic) [Example 82, (1R,2R,4R) and (1S,2S,4S)-2-Methoxy-4-(4-pyrimidin-5-yl-2-trifluoromethyl-benzenesulfonyl)-cyclopentanecarboxylic acid (1-cyano-cyclopropyl)-amide] the value was 0.6 nM; for `N#CC1(NC(=O)[C@@H]2C[C@@H](S(=O)(=O)c3ccccc3C(F)(F)F)C[C@H]2OC2CCS(=O)(=O)CC2)CC1` (racemic) [Example 219, (1R,2R,4R) and (1S,2S,4S)-2-[(tetrahydro-1,1-dioxo-2H-thiopyran-4-yl)oxy]-4-(2-trifluoromethyl-benzenesulfonyl)-cyclopentanecarboxylic acid (1-cyano-cyclopropyl)-amide], 6.77 nM. For `N#CC1(NC(=O)[C@@H]2C[C@@H](S(=O)(=O)c3ccc(Cl)cc3Cl)C[C@H]2OCc2ccc(Cl)cc2)CC1` (racemic) [Example 233, (1R,2R,4R) and (1S,2S,4S)-2-(4-Chloro-benzyloxy)-4-(2,4-dichloro-benzenesulfonyl)-cyclopentanecarboxylic acid (1-cyano-cyclopropyl)-amide] the value was 10.5 nM.

`CC(=O)N1CCN(c2ccc(S(=O)(=O)[C@H]3C[C@@H](C(=O)NC4(C#N)CC4)[C@H](C(=O)N4CCC(F)(F)C4)C3)c(Cl)c2)CC1` [Example 209, (1R,2R,4S)-4-[4-(4-Acetyl-piperazin-1-yl)-2-chloro-benzenesulfonyl]-2-(3,3-difluoro-pyrrolidine-1-carbonyl)-cyclopentanecarboxylic acid (1-cyano-cyclopropyl)-amide]: the midpoint of inhibition, the IC50, lay at 0.54 nM. For `CCO[C@@H]1C[C@H](S(=O)(=O)c2ccc(-c3ccnc(C)c3)cc2C(F)(F)F)C[C@H]1C(=O)NC1(C#N)CC1` (racemic) [Example 114, (1R,2R,4R) and (1S,2S,4S)-2-Ethoxy-4-[4-(2-methyl-pyridin-4-yl)-2-trifluoromethyl-benzenesulfonyl]-cyclopentanecarboxylic acid (1-cyano-cyclopropyl)-amide] the value was 0.3 nM.

In turn, `CO[C@@H]1C[C@H](S(=O)(=O)c2ccc(-c3cnn(CCO)c3)cc2C(F)(F)F)C[C@H]1C(=O)NC1(C#N)CC1` (racemic) [Example 170, (1R,2R,4R) and (1S,2S,4S)-4-{4-[1-(2-Hydroxy-ethyl)-1H-pyrazol-4-yl]-2-trifluoromethyl-benzenesulfonyl}-2-methoxy-cyclopentanecarboxylic acid (1-cyano-cyclopropyl)-amide] came in with an IC50 of 0.587 nM.
